Test results from ChEMBL document CHEMBL5247620, “Lupane derivatives containing various aryl substituents in the position 3 have selective cytostatic effect in leukemic cancer cells including resistant phenotypes” (Eur J Med Chem, 2022).
pIC50: −log10 of the molar value. Activity calls are given as the source filed them. No cut-off for these calls is given here.

Experiments:
CCRF-CEM [1] = assay: Cytotoxicity against human CCRF-CEM cells assessed as inhibition of cell growth incubated for 72 hrs by MTS assay; format: functional, cell-based
CEM-DNR = assay: Cytotoxicity against human CEM-DNR cells assessed as inhibition of cell growth incubated for 72 hrs by MTS assay; format: functional, cell-based
K562 = assay: Cytotoxicity against human K562 cells assessed as inhibition of cell growth incubated for 72 hrs by MTS assay; format: functional, cell-based; details: K562, 72 h
[2] = Cytotoxicity against human K562-Tax cells assessed as inhibition of cell growth incubated for 72 hrs by MTS assay; format: functional, cell-based
A549 = assay: Cytotoxicity against human A549 cells assessed as inhibition of cell growth incubated for 72 hrs by MTS assay; format: functional, cell-based; details: A549, 72 h
HCT-116 = assay: Cytotoxicity against human HCT-116 cells assessed as inhibition of cell growth incubated for 72 hrs by MTS assay; format: functional, cell-based; details: HCT-116, 72 h
[3] = Cytotoxicity against human p53HCT116 cells assessed as inhibition of cell growth incubated for 72 hrs by MTS assay; format: functional, cell-based; details: p53HCT116, 72 h
U2OS = assay: Cytotoxicity against human U2OS cells assessed as inhibition of cell growth incubated for 72 hrs by MTS assay; format: functional, cell-based
[4] = Cytotoxicity against human BJ cells assessed as inhibition of cell growth incubated for 72 hrs by MTS assay; format: toxicity, cell-based
[5] = Cytotoxicity against human MRC5 cells assessed as inhibition of cell growth incubated for 72 hrs by MTS assay; format: toxicity, cell-based
CCRF-CEM [6] = assay: Induction of apoptosis in human CCRF-CEM cells assessed as viable cells at 1 times IC50 concentration incubated for 24 hrs by annexin V FITC/propidium iodide staining based flow cytometry (reference value: 96 %); format: functional
CCRF-CEM [7] = assay: Induction of apoptosis in human CCRF-CEM cells assessed as early apoptotic cells at 1 times IC50 concentration incubated for 24 hrs by annexin V FITC/propidium iodide staining based flow cytometry (reference value: 2.6 %); format: functional
CCRF-CEM [8] = assay: Induction of apoptosis in human CCRF-CEM cells assessed as late apoptotic cells at 1 times IC50 concentration incubated for 24 hrs by annexin V FITC/propidium iodide staining based flow cytometry (reference value: 1.4 %); format: functional
CCRF-CEM [9] = assay: Induction of apoptosis in human CCRF-CEM cells assessed as viable cells at 5 times IC50 concentration incubated for 24 hrs by annexin V FITC/propidium iodide staining based flow cytometry (reference value: 96 %); format: functional
CCRF-CEM [10] = assay: Induction of apoptosis in human CCRF-CEM cells assessed as early apoptotic cells at 5 times IC50 concentration incubated for 24 hrs by annexin V FITC/propidium iodide staining based flow cytometry (reference value: 2.6 %); format: functional
CCRF-CEM [11] = assay: Induction of apoptosis in human CCRF-CEM cells assessed as late apoptotic cells at 5 times IC50 concentration incubated for 24 hrs by annexin V FITC/propidium iodide staining based flow cytometry (reference value: 1.4 %); format: functional
CCRF-CEM [12] = assay: Induction of apoptosis in human CCRF-CEM cells assessed as decrease in cell number at 1 times IC50 concentration incubated for 24 to 74 hrs by annexin V FITC/propidium iodide staining based flow cytometry; format: functional; details: time 24-74 hrs
CCRF-CEM [13] = assay: Induction of apoptosis in human CCRF-CEM cells assessed as decrease in cell number at 5 times IC50 concentration incubated for 24 to 74 hrs by annexin V FITC/propidium iodide staining based flow cytometry; format: functional; details: time 24-74 hrs
[14] = Chemical stability of the compound in PBS buffer assessed as compound remaining at pH 7.4 at 2 uM measured after 15 mins by RF-MS analysis; format: physicochemical; details: read-out: Stability
[15] = Chemical stability of the compound in PBS buffer assessed as compound remaining at pH 7.4 at 2 uM measured after 30 mins by RF-MS analysis; format: physicochemical; details: read-out: Stability
[16] = Chemical stability of the compound in PBS buffer assessed as compound remaining at pH 7.4 at 2 uM measured after 60 mins by RF-MS analysis; format: physicochemical; details: read-out: Stability
[17] = Chemical stability of the compound in PBS buffer assessed as compound remaining at pH 7.4 at 2 uM measured after 120 mins by RF-MS analysis; format: physicochemical; details: read-out: Stability
[18] = Plasma protein binding in human assessed as fraction bound at 10 uM incubated for 4 hrs by rapid equilibrium dialysis based RF-MS analysis; format: ADME, cell-free; details: read-out: PPB (converted)
[19] = Plasma stability in human assessed as compound remaining at 2 uM measured after 15 mins by RF-MS analysis; format: ADME, cell-free; details: read-out: Stability
[20] = Plasma stability in human assessed as compound remaining at 2 uM measured after 30 mins by RF-MS analysis; format: ADME, cell-free; details: read-out: Stability
[21] = Plasma stability in human assessed as compound remaining at 2 uM measured after 60 mins by RF-MS analysis; format: ADME, cell-free; details: read-out: Stability
[22] = Plasma stability in human assessed as compound remaining at 2 uM measured after 120 mins by RF-MS analysis; format: ADME, cell-free; details: read-out: Stability
[23] = Microsomal stability in human liver microsome as compound remaining at 2 uM measured after 15 mins in presence of NADPH by RF-MS analysis; format: ADME; details: liver microsomes, read-out: Stability
[24] = Microsomal stability in human liver microsome as compound remaining at 2 uM measured after 30 mins in presence of NADPH by RF-MS analysis; format: ADME; details: liver microsomes, read-out: Stability
[25] = Microsomal stability in human liver microsome as compound remaining at 2 uM measured after 60 mins in presence of NADPH by RF-MS analysis; format: ADME; details: liver microsomes, read-out: Stability
[26] = Apparent permeability across apical to basolateral side in dog MDCK-MDR1 cells incubated for 1 hr by high-throughput spectrometric analysis; format: ADME, cell-based, Canis lupus familiaris
[27] = Apparent permeability across apical to basolateral side in human Caco-2 cells incubated for 2 hr by high-throughput spectrometric analysis; format: ADME, cell-based
[28] = Efflux ratio of apparent permeability from basolateral to apical side over apical to basolateral side in dog MDCK-MDR1 cells incubated for 1 hr by high-throughput spectrometric analysis; format: ADME, cell-based, Canis lupus familiaris
[29] = Efflux ratio of apparent permeability from basolateral to apical side over apical to basolateral side in human Caco-2 cells incubated for 2 hr by high-throughput spectrometric analysis; format: ADME, cell-based
[30] = Apparent permeability across apical to basolateral side in dog MDCK-MDR1 cells assessed as drug recovery incubated for 1 hr by high-throughput spectrometric analysis; format: ADME, cell-based, Canis lupus familiaris; details: read-out: Drug recovery
[31] = Apparent permeability across apical to basolateral side in human Caco-2 cells assessed as drug recovery incubated for 2 hr by high-throughput spectrometric analysis; format: ADME, cell-based; details: read-out: Drug recovery
CCRF-CEM [32] = assay: Induction of cell cycle arrest in human CCRF-CEM cells assessed as accumulation of cells at G1 phase at 1 times IC50 concentration incubated for 24 to 72 hrs by propidium iodide staining based flow cytometry; format: functional; details: time 24-72 hrs
CCRF-CEM [33] = assay: Induction of cell cycle arrest in human CCRF-CEM cells assessed as accumulation of cells at G1 phase at 5 times IC50 concentration incubated for 24 to 72 hrs by propidium iodide staining based flow cytometry; format: functional; details: time 24-72 hrs
CCRF-CEM [34] = assay: Induction of cell cycle arrest in human CCRF-CEM cells assessed as decrease of cell population at S phase at 1 times IC50 concentration incubated for 24 to 72 hrs by propidium iodide staining based flow cytometry; format: functional; details: time 24-72 hrs
CCRF-CEM [35] = assay: Induction of cell cycle arrest in human CCRF-CEM cells assessed as decrease of cell population at S phase at 5 times IC50 concentration incubated for 24 to 72 hrs by propidium iodide staining based flow cytometry; format: functional; details: time 24-72 hrs
CCRF-CEM [36] = assay: Induction of apoptosis in human CCRF-CEM cells assessed as decrease in Rb phosphorylation level at Ser780 at 5 times IC50 concentration incubated for 24 hrs by western blot assay; format: functional, cell-based
CCRF-CEM [37] = assay: Induction of apoptosis in human CCRF-CEM cells assessed as decrease in Rb phosphorylation level at Ser807/811 at 5 times IC50 concentration incubated for 24 hrs by western blot assay; format: functional, cell-based
CCRF-CEM [38] = assay: Induction of apoptosis in human CCRF-CEM cells assessed as decrease in cyclin A protein expression level at 5 times IC50 concentration incubated for 24 hrs by western blot assay; format: functional, cell-based
CCRF-CEM [39] = assay: Induction of apoptosis in human CCRF-CEM cells assessed as decrease in Bcl-2 protein expression level at 5 times IC50 concentration incubated for 24 hrs by western blot assay; format: functional, cell-based
CCRF-CEM [40] = assay: Induction of apoptosis in human CCRF-CEM cells assessed as effect on total Rb protein level at 5 times IC50 concentration incubated for 24 hrs by western blot assay; format: functional, cell-based
CCRF-CEM [41] = assay: Induction of apoptosis in human CCRF-CEM cells assessed as effect on total Rb protein level at 1 times IC50 concentration incubated for 24 hrs by western blot assay; format: functional, cell-based

- remaining at 0.25 h, 2 µM [14]: 95.5%
- remaining at 0.5 h, 2 µM [15]: 91.7%
- remaining at 1 h, 2 µM [16]: 91.8%
- remaining at 2 h, 2 µM [17]: 96.7%
- fraction unbound at 4 h, 10 µM [18]: 0.502
- remaining at 0.25 h, 2 µM [19]: 97.7%
- remaining at 0.5 h, 2 µM [20]: 88.7%
- remaining at 1 h, 2 µM [21]: 82.5%
- remaining at 2 h, 2 µM [22]: 71.5%
- remaining at 0.25 h, 2 µM [23]: 108%
- remaining at 0.5 h, 2 µM [24]: 107%
- remaining at 1 h, 2 µM [25]: 94.8%
- Papp A→B at 1 h [26]: 1.73 ×10⁻⁶ cm/s
- Papp A→B at 2 h [27]: 0.053 ×10⁻⁶ cm/s
- efflux ratio at 1 h [28]: 7.23
- efflux ratio at 2 h [29]: 3.92
- recovery at 1 h [30]: 31.5%
- recovery at 2 h [31]: 106%
SMILES: C=C(C)[C@@H]1CC[C@]2(C(=O)O)CC[C@]3(C)[C@H](CC[C@@H]4[C@@]5(C)CC=C(c6cccc(N)c6)C(C)(C)[C@@H]5CC[C@]43C)[C@@H]12
- pIC50 (CCRF-CEM [1]): 5.74
- pIC50 (CEM-DNR): 5.05
- pIC50 (K562): 4.44
- pIC50 [2]: 5.05
- pIC50 (A549): 5.01
- pIC50 (HCT-116): 4.92
- pIC50 [3]: 5.00
- pIC50 (U2OS): 4.51
- IC50 at 72 h [4]: 50 µM
- IC50 at 72 h [5]: 47 µM
- Activity (CCRF-CEM [6]): 95.2%
- Activity (CCRF-CEM [7]): 3.3%
- Activity (CCRF-CEM [8]): 1.5%
- Activity (CCRF-CEM [9]): 94.8%
- Activity (CCRF-CEM [10]): 3.4%
- Activity (CCRF-CEM [11]): 1.8%
- Activity (CCRF-CEM [12]): Active
- Activity (CCRF-CEM [13]): Active
- Activity (CCRF-CEM [32]): Active
- Activity (CCRF-CEM [33]): Active
- Activity (CCRF-CEM [34]): Active
- Activity (CCRF-CEM [35]): Active
- Activity (CCRF-CEM [36]): Active
- Activity (CCRF-CEM [37]): Active
- Activity (CCRF-CEM [38]): Active
- Activity (CCRF-CEM [39]): Active
- Activity (CCRF-CEM [40]): inactive
- Activity (CCRF-CEM [41]): inactive
